Assays:
[1] = system: human embryonic kidney 293t cell lines; assay: Toxicity on human embryonic kidney 293T cells; details: human
Procedure: The following representative compounds are tested for their RORγt inhibitory activity and toxicity.

human RORγt = target: T1, human RORγt (Homo sapiens, UniProt P51449); assay: IL-17a induction in human CD4+ T cells transduced with RORαd, RORβ or RORγt; assay type: cell-based
T1 construct: expressed in transfected cells; host or cells: human CD4+ T cells (cord blood or adult blood), lentiviral HDV-IRES-GFP/HSA vectors
T1 sequence (P51449 1-497 isoform P51449-2): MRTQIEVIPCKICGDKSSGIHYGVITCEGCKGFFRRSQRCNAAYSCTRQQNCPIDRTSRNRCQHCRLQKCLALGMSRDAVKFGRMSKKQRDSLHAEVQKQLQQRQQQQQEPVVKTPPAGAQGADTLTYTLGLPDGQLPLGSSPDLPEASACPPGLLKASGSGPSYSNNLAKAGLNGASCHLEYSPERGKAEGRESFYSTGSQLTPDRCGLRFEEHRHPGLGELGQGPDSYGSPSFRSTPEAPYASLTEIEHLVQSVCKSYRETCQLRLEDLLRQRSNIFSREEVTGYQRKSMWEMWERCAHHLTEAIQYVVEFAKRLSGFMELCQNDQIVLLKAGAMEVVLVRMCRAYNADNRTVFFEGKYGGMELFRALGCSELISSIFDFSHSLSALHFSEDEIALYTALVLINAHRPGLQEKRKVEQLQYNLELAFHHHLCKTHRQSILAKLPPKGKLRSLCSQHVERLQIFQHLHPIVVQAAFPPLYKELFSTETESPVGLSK
Procedure: GFP expressing cells were gated for analysis. DMSO, Dig(dhd) (40 μM) or Dig(sal) (10 μM) was added 6-8 h after viral transduction. c, Flow cytometry of the production of IL-17a and IFN-γ by human naive cord blood T cells cultured for six days in the presence of IL-2, IL-23, and IL-1β, with various concentrations of TGF-β. DMSO, Dig(dhd), or Dig(sal) at indicated concentrations (μM) was added 16 h after cytokine addition.
Blood samples were obtained from the New York Blood Center. Mononuclear cells were prepared from buffy coats from healthy adult donors or from cord blood, using FicollPAQUE gradients. CD4^+ T cells were magnetically selected (autoMACS, Miltenyi). Adult memory CD4^+ T cell subsets were further purified as CD3^+CD4^+CD25^− CD45RO^+CCR6^+CD161^+ by cell sorting on a FACSAria (BD). Naive CD4^+ T cells were isolated from cord blood as CD3^+CD4^+CD45RA^+HLA-DR^−CD25^−DAPI^−. Memory cells were activated with anti-CD3/CD28 coated beads (1 bead/cell) in T cell media (see above) supplemented with 100 U/mL IL-2 (Peprotech), 10 ng/mL IL-1b and 10 ng/mL IL-23 (eBioscience). Naive cells were activated with anti-CD3/CD28 beads and cultured with the same cytokines, and TGF-b (0, 0.1, 1, or, 10 ng/mL) (Peprotech), in XVIVO-20 (Lonza) media. […] Naive CD4^+ T cells, cultured in XVIVO-20 media supplemented 100 U/mL IL-2 (Peprotech), were transduced with RORad-IRES-GFP or RORγt-IRES-GFP on day 1 and analyzed on day 6. GFP expressing cells were gated for analysis. DMSO or compounds were added 6-8 hours after the viral transduction.
Blood samples were obtained from the New York Blood Center. Mononuclear cells were prepared from buffy coats from healthy adult donors or from cord blood, using FicollPAQUE gradients. CD4^+ T cells were magnetically selected (autoMACS, Miltenyi). Adult memory CD4+ T cell subsets were further purified as CD3^+CD4^+CD25^−CD45RO^+CCR6^+CD161^+ by cell sorting on a FACSAria (BD). […] Naive CD4+ T cells, cultured in XVIVO-20 media supplemented with 100 U/mL IL-2 (Peprotech), were transduced with RORαd-IRES-GFP or RORγt-IRES-GFP on day 1 and analyzed on day 6. […]

[2] = system: aryl hydrocarbon receptor (AHR); assay: AHR ligand FICZ effect on RORα-dependent IL-17a expression; assay type: cell-based, mouse; details: FICZ added
[3] = system: experimental autoimmune encephalomyelitis (EAE); assay: Active EAE (MOG35-55/CFA) in C57BL/6 mice; assay type: in vivo, mouse
[4] = target: T2, RORγt binding to Il17a/f and Il23r loci (Mus musculus, UniProt P51450); assay: Chromatin immunoprecipitation of RORγt at target loci in Th17-polarized cells; assay type: cell-based; details: 10 and 20 μM, ChIP
T2 construct: endogenous in cells; host or cells: mouse Th17-polarized CD4+ T cells

[5] = system: RORγ LBD mutants (L290, C318, A494); assay: Random mutagenesis of RORγ LBD, digoxin resistance in S2 reporter; assay type: cell-based, mouse; details: mutations at L290, C318 and A494

T2 sequence (P51450 1-495 isoform P51450-2): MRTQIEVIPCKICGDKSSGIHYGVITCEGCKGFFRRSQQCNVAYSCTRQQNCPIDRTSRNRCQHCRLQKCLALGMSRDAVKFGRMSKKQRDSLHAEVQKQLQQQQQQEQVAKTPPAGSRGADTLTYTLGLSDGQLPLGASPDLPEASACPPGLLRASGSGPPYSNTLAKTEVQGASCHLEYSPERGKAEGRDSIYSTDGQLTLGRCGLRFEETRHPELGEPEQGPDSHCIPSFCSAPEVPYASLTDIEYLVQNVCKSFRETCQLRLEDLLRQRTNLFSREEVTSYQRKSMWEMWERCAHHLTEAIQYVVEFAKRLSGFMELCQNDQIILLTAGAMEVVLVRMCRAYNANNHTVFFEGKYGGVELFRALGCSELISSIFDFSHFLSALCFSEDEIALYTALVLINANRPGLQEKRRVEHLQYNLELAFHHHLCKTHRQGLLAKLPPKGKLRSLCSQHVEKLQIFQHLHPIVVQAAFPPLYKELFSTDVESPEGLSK

In the case of `CC1O[C@@H](OC2C(C)O[C@H](OC3C(C)O[C@@H](O[C@H]4CC[C@@]5(C)[C@H](CC[C@@H]6[C@@H]5C[C@@H](O)[C@]5(C)[C@@H](C(CO)CCO)CC[C@]65O)C4)C[C@H]3O)C[C@H]2O)C[C@@H](O)C1O` (stereo partly shown) [Compound 13, 20,22-Dihydrodigoxin-21,23-diol], the “cytotoxic concentration on human cells” value [1] is reported as over 40 µM and the “RORγt-mediated IL-17a induction (versus RORαd)” value (human RORγt; 40 μM, FIG. 3b) is reported as “selectively suppressed”.
In the case of `C[C@H]1O[C@@H](O[C@H]2[C@@H](O)C[C@H](O[C@H]3[C@@H](O)C[C@H](O[C@H]4CC[C@@]5(C)[C@H](CC[C@@H]6[C@@H]5C[C@@H](O)[C@]5(C)[C@@H](C7=CC(=O)OC7)CC[C@]65O)C4)O[C@@H]3C)O[C@@H]2C)C[C@H](O)[C@@H]1O` [Digoxin], the AHR activity [2] is reported as “unaffected”, the “EAE onset and severity of progression” value ([3]; IP daily from day 2) is reported as “not only delayed onset, but also reduced severity” and the “percentage of IFN-γ-producing Th1 cells infiltrating the spinal cord” value ([3]; compared to DMSO-treated mice) is reported as “approximately the same”. For the same compound, the “reduction of percentage of IL-17-producing T cells infiltrating the spinal cord” value ([3]; compared to DMSO-treated mice, day 21) was “more than 50%”, the “total number of mononuclear cells infiltrating the spinal cord” value ([3]; mouse, in vivo) was “markedly reduced” and the “RORαd-, β- or γt-mediated induction of IL-17a” value (human RORγt; human T cells expressing murine Na+/K+-ATPase) was “inhibited only RORγt-mediated induction of IL-17a”. The “RORγt binding to sites in Il17a/f and Il23r” value [4] was “substantially reduced” and the “sensitivity of mutant RORγ to inhibition” value [5] was “much less sensitivity”.
